Source: patent publication US10919887B2, “Salts and solid forms of a monobactam antibiotic” (Novartis AG, priority 2015, dated 2021)
Converted amounts (≈) assume the structure as drawn.

Tests used:
[1] = Stability of Compound X and its salts in aqueous solution; format: physicochemical; conditions: in solution, before addition of arginine or other base
Text: It is important for a drug product to be stable enough to avoid significant degradation when it is shipped and stored under commercially practical conditions. The inventors have discovered that Compound X in solution is preferably used and stored at a pH between 4 and 6, preferably between 4.0 and 5.5, for maximum stability in the presence of moisture. Optimal solution stability is achieved at a pH of about 4.0 to 5.5 Accordingly, the invention provides pharmaceutical compositions comprising Compound X at a pH between 4 and 6, preferably between 4.0 and 5.5, and more preferably at a pH of about 5±0.5 or at pH of 5±0.2. Suitable compositions comprise Compound X in an aqueous solution, such as a dextrose or saline solution, which may be isotonic, and may contain other substances such as stabilizers, antioxidants, buffers or pH modifiers, nutrients, and the like. In some of these embodiments, the desired pH is achieved by combining Compound X and a pH modifier suitable to achieve the desired pH in an aqueous solution. Suitable pH modifiers include but are not limited to sodium hydroxide, sodium carbonate, sodium bicarbonate, potassium carbonate, potassium hydroxide, amines such as TRIS (tris(hydroxymethyl)aminomethane), and amino acids such as arginine, lysine, histidine, and the like. Known monobactams, including aztreonam, have been formulated with arginine. […]

Photochemical stability = format: physicochemical
Protocol: Compound X (500 mg) and L-arginine (332.5 mg) are combined in a vial. Saccharose (crystalline, pyrogen-free sucrose: 1000 mg) is added along with water suitable for injection (8.00 mL). The pH of the solution is adjusted, if necessary, using 1.0N HCl or 1.0N NaOH to arrive at a pH of 5.0±0.5, preferably a pH of 5.0±0.2. This provides a solution containing about 62.5 mg/mL of Compound X as an arginine salt. This solution can be filtered if necessary, and can be lyophilized to provide a white or off-white solid (lyophilizate). The lyophilized solid can be reconstituted with sterile water or a pharmaceutically acceptable aqueous carrier such as isotonic saline or dextrose to provide a solution suitable for intravenous administration. The lyophilizate should be stored in a container that excludes light to protect the lyophilizate from photodegradation. This process can be scaled up or down to provide unit dosages for storage and distribution, or bulk material that can be further processed as desired.
In one embodiment of the invention, Compound X is packaged in a container that substantially reduces exposure to light, preferably in an atmosphere at a relative humidity of 25-50% humidity and more preferably at a relative humidity of 30-40% or 30-45%.

E. coli strain 25922 = assay: MIC by broth microdilution, E. coli strain 25922; format: cell-based; conditions: Escherichia coli, salt: none, read-out: Inhibitory Concentration (MIC) Ec 25922
Protocol: (§1) Bacterial isolates were cultivated from −70° C. frozen stocks by two consecutive overnight passages at 35° C. in ambient air on 5% blood agar (Remel, Lenexa, Kans.). Quality control and P. aeruginosa ATCC 27853) is from the American Type Culture Collection (ATCC; Rockville, Md.) and PAO1 was received from Dr. K. Poole.
Minimal Inhibitory Concentrations (MICs) were determined by the broth microdilution method in accordance with Clinical and Laboratories Institute (CLSI) guidelines. In brief, fresh overnight bacterial cultures were suspended in sterile saline, and adjusted to a 0.5 McFarland turbidity standard. Bacterial suspensions were then diluted in cation adjusted Mueller-Hinton Broth (MHB II; BBL) to yield a final inoculum of approximately 5×10^5 colony-forming units (CFU)/mL. A master plate of antibiotics was prepared at a concentration equivalent to hundred-fold the highest desired final concentration in 100% dimethyl sulfoxide (DMSO). […] The assay plates were read using a microtiter plate reader (Molecular Devices) at 600 nm as well as by visual observation with a reading mirror. The lowest concentration of the compound that prevented visible growth was recorded as the MIC. Performance of the assay was monitored by testing aztreonam against laboratory quality control strains in accordance with guidelines of the CLSI.

[2] = tested on: E. coli NB27273-CDY0033 (KPC2); assay: MIC by broth microdilution, isogenic E. coli expressing KPC2; format: cell-based; conditions: Escherichia coli, read-out: Inhibitory Concentration (MIC) Ec KPC2 Iso
Protocol: as §1
Strain NB27273 (BW25113 pspB::Km^r) was obtained from the Keio transposon insertion collection. The strain has the pspB gene replaced by a kanamycin resistance marker (BW25113 pspB::Km^r). This strain was cured of the transposon in pspB via FLP recombinase using published methodology. The resulting strain, BW25113 pspB, was used as a host for multicopy vectors expressing key β-lactamases. Multicopy plasmids directing constitutive expression of β-lactamases were established as follows: Synthetic, codon optimized genes encoding E. coli KPC2 and SHV12-lactamases were made by DNA2.0 (Palo Alto, Calif.). Each of the synthetic fragments were designed to contain NotI and NcoI restriction sites at their termini, allowing ligation into a NotI/NcoI digested pET28a(+) derivative for protein expression. […]

## Nc1nc(/C(=N/OC2(C(=O)O)CC2)C(=O)N[C@@H]2C(=O)N(S(=O)(=O)O)[C@@H]2CN2CCOC2=O)cs1 [Compound X, 1-(((Z)-(1-(2-aminothiazol-4-yl)-2-oxo-2-(((3S,4R)-2-oxo-4-((2-oxooxazolidin-3-yl)methyl)-1-sulfoazetidin-3-yl)amino)ethylidene)amino)oxy)cyclopropanecarboxylic acid]
[1]
  hydrolytic stability in water: subject to hydrolytic degradation in water in the absence of a base or outside the pH range of 4-6
Photochemical stability
  photochemical stability: degrade photochemically
E. coli strain 25922
  MIC: 250 µg/mL
[2]
  MIC: 125 µg/mL (≈ 241 µM)
